Results taken from the supplement of paper PMC6004109.

Experiments:
Details in all cases: temperature: 37 °C
[1] = system: Saccharomyces cerevisiae ZIM 2558 (RPMI); assay: FICI minimum (fractional inhibitory concentration index, Loewe) (dimensionless); higher = less synergy / more antagonism
How it was run: (§1)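 Yeast strains were tested against two-drug combinations by CLSI M27-A3 checkerboard broth microdilution, with clinical isolates in RPMI and C. glabrata ATCC 2001 and a strain derived from it in YPD. Each well held 100 µl of drug dilutions plus 100 µl of an inoculum at 3–5 × 10^3 cells/ml, incubated at 37 °C and read at 48 h as background-subtracted OD600 in at least biological triplicates. The reported figure is the lowest or highest Loewe fractional inhibitory concentration index across the combination surface, summing for each drug its MIC in combination divided by its MIC alone. Depending on the drug, the MIC was taken as MIC50 or MIC90.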

[2] = system: Saccharomyces cerevisiae ZIM 2269 (RPMI); assay: as above
How it was run: as §1

[3] = system: Candida glabrata ZIM 2382 (RPMI); assay: as above
How it was run: as §1

[4] = system: Saccharomyces cerevisiae ZIM 2247 (RPMI); assay: as above
How it was run: as §1

[5] = system: Candida glabrata ZIM 2389 (RPMI); assay: as above
How it was run: as §1

[6] = system: Candida glabrata ZIM 2369 (RPMI); assay: as above
How it was run: as §1

[7] = system: Candida glabrata ZIM 2344 (RPMI); assay: as above
How it was run: as §1

[8] = system: Saccharomyces cerevisiae ZIM 2566 (RPMI); assay: as above
How it was run: as §1

[9] = system: Saccharomyces cerevisiae ZIM 2255 (RPMI); assay: as above
How it was run: as §1

[10] = system: Candida glabrata ZIM 2365 (RPMI); assay: as above
How it was run: as §1

[11] = system: Candida glabrata ATCC 2001 (YPD); assay: FICI maximum (fractional inhibitory concentration index, Loewe) (dimensionless); higher = less synergy / more antagonism
How it was run: as §1

[12] = system: Candida glabrata ATCC 2001 pdr1 deletion mutant (YPD); assay: as above
How it was run: as §1

[13] = system: Candida glabrata ATCC 2001 (YPD); assay: Bliss independence sum of statistically significant ΔE (measured minus predicted growth inhibition) over checkerboard surface (fraction (sum of ΔE; 1 = 100%)); higher = more synergy
[14] = system: Candida glabrata ATCC 2001 pdr1 deletion mutant (YPD); assay: as above
[15] = system: Candida glabrata ATCC 2001 (YPD); assay: FICI minimum (fractional inhibitory concentration index, Loewe) (dimensionless); higher = less synergy / more antagonism
How it was run: as §1

[16] = system: Candida glabrata ATCC 2001 pdr1 deletion mutant (YPD); assay: as above
How it was run: as §1

Compound | FICI minimum [1] | FICI minimum [2] | FICI minimum [3] | FICI minimum [4] | FICI minimum [5] | FICI minimum [6] | FICI minimum [7] | FICI minimum [8] | FICI minimum [9] | FICI minimum [10] | FICI maximum [11] | FICI maximum [12] | Bliss independence sum [13] | Bliss independence sum [14] | FICI minimum [15] | FICI minimum [16]
CC1(C)S[C@@H]2[C@H](NC(=O)[C@H](N)c3ccc(O)cc3)C(=O)N2[C@H]1C(=O)O [amoxicillin] + CCC(C)n1ncn(-c2ccc(N3CCN(c4ccc(OCC5COC(Cn6cncn6)(c6ccc(Cl)cc6Cl)O5)cc4)CC3)cc2)c1=O [itraconazole] | 0.508 | 1 | 1.01 | 0.508 | 1.01 | 1.01 | 0.0703 | 1.01 | 1.01 | 0.562 |  |  |  |  |  | 
CC1(C)S[C@@H]2[C@H](NC(=O)[C@H](N)c3ccc(O)cc3)C(=O)N2[C@H]1C(=O)O [amoxicillin] + C[C@@H]1[C@H](O)[C@@H](C)/C=C/C=C/C=C/C=C/C=C/C=C/C=C/[C@H](O[C@@H]2O[C@H](C)[C@@H](O)[C@H](N)[C@@H]2O)C[C@@H]2O[C@](O)(C[C@@H](O)C[C@@H](O)[C@H](O)CC[C@@H](O)C[C@@H](O)CC(=O)O[C@H]1C)C[C@H](O)[C@H]2C(=O)O [amphotericin B] | 2.02 | 1.01 | 0.508 | 1.01 | 0.508 | 1.01 | 0.133 | 0.562 | 1.01 | 0.258 |  |  |  |  |  | 
CN(Cc1cnc2nc(N)nc(N)c2n1)c1ccc(C(=O)N[C@@H](CCC(=O)O)C(=O)O)cc1 [methotrexate] + CCC(C)n1ncn(-c2ccc(N3CCN(c4ccc(OCC5COC(Cn6cncn6)(c6ccc(Cl)cc6Cl)O5)cc4)CC3)cc2)c1=O [itraconazole] | 0.656 | 1 | 1 | 0.505 | 1 | 1 | 1 | 1 | 1 | 0.505 |  |  |  |  |  | 
CN(Cc1cnc2nc(N)nc(N)c2n1)c1ccc(C(=O)N[C@@H](CCC(=O)O)C(=O)O)cc1 [methotrexate] + C[C@@H]1[C@H](O)[C@@H](C)/C=C/C=C/C=C/C=C/C=C/C=C/C=C/[C@H](O[C@@H]2O[C@H](C)[C@@H](O)[C@H](N)[C@@H]2O)C[C@@H]2O[C@](O)(C[C@@H](O)C[C@@H](O)[C@H](O)CC[C@@H](O)C[C@@H](O)CC(=O)O[C@H]1C)C[C@H](O)[C@H]2C(=O)O [amphotericin B] | 1 | 1 | 1 | 1 | 1 | 1 | 0.656 | 1 | 0.516 | 1 |  |  |  |  |  | 
CN(Cc1cnc2nc(N)nc(N)c2n1)c1ccc(C(=O)N[C@@H](CCC(=O)O)C(=O)O)cc1 [methotrexate] + OC(Cn1cncn1)(Cn1cncn1)c1ccc(F)cc1F [fluconazole] | 0.406 | 0.656 | 1 | 1 | 0.505 | 1 | 0.505 | 1 | 1 | 1 |  |  |  |  |  | 
COc1c(C)c2c(c(O)c1C/C=C(\C)CCC(=O)O)C(=O)OC2 [mycophenolic acid] + C[C@@H]1[C@H](O)[C@@H](C)/C=C/C=C/C=C/C=C/C=C/C=C/C=C/[C@H](O[C@@H]2O[C@H](C)[C@@H](O)[C@H](N)[C@@H]2O)C[C@@H]2O[C@](O)(C[C@@H](O)C[C@@H](O)[C@H](O)CC[C@@H](O)C[C@@H](O)CC(=O)O[C@H]1C)C[C@H](O)[C@H]2C(=O)O [amphotericin B] | 0.375 | 1.03 | 0.5 | 0.767 | 0.531 | 0.75 | 0.625 | 0.633 | 1 | 0.5 |  |  |  |  |  | 
COc1c(C)c2c(c(O)c1C/C=C(\C)CCC(=O)O)C(=O)OC2 [mycophenolic acid] + OC(Cn1cncn1)(Cn1cncn1)c1ccc(F)cc1F [fluconazole] | 1.01 | 1.01 | 1.01 | 2.02 | 1.01 | 1.01 | 1.01 | 1.01 | 2.5 | 1.02 | 2.5 | 2.12 | -2.6 | -3.21 | 1.06 | 1.03
C=CC[C@@H]1/C=C(\C)C[C@H](C)C[C@H](OC)[C@H]2O[C@@](O)(C(=O)C(=O)N3CCCC[C@H]3C(=O)O[C@H](/C(C)=C/[C@@H]3CC[C@@H](O)[C@H](OC)C3)[C@H](C)[C@@H](O)CC1=O)[C@H](C)C[C@@H]2OC [tacrolimus] + CCC(C)n1ncn(-c2ccc(N3CCN(c4ccc(OCC5COC(Cn6cncn6)(c6ccc(Cl)cc6Cl)O5)cc4)CC3)cc2)c1=O [itraconazole] | 0.25 | 0.75 | 1 | 0.501 | 0.126 | 0.25 | 0.125 | 0.13 | 0.254 | 0.5 |  |  |  |  |  | 
C=CC[C@@H]1/C=C(\C)C[C@H](C)C[C@H](OC)[C@H]2O[C@@](O)(C(=O)C(=O)N3CCCC[C@H]3C(=O)O[C@H](/C(C)=C/[C@@H]3CC[C@@H](O)[C@H](OC)C3)[C@H](C)[C@@H](O)CC1=O)[C@H](C)C[C@@H]2OC [tacrolimus] + C[C@@H]1[C@H](O)[C@@H](C)/C=C/C=C/C=C/C=C/C=C/C=C/C=C/[C@H](O[C@@H]2O[C@H](C)[C@@H](O)[C@H](N)[C@@H]2O)C[C@@H]2O[C@](O)(C[C@@H](O)C[C@@H](O)[C@H](O)CC[C@@H](O)C[C@@H](O)CC(=O)O[C@H]1C)C[C@H](O)[C@H]2C(=O)O [amphotericin B] | 0.252 | 0.0825 | 0.251 | 0.0638 | 0.26 | 0.258 | 0.516 | 0.25 | 0.0938 | 0.25 |  |  |  |  |  | 
C=CC[C@@H]1/C=C(\C)C[C@H](C)C[C@H](OC)[C@H]2O[C@@](O)(C(=O)C(=O)N3CCCC[C@H]3C(=O)O[C@H](/C(C)=C/[C@@H]3CC[C@@H](O)[C@H](OC)C3)[C@H](C)[C@@H](O)CC1=O)[C@H](C)C[C@@H]2OC [tacrolimus] + OC(Cn1cncn1)(Cn1cncn1)c1ccc(F)cc1F [fluconazole] | 0.135 | 0.255 | 0.5 | 0.126 | 0.253 | 0.5 | 0.25 | 0.135 | 0.156 | 1 |  |  |  |  |  | 
